Holding throughout (experiment): biochemical
What all share (design): DiscoverX KinomeScan competition binding assay across human kinases; per cent of control at 10 and 100 uM

The target of assay [1] is T1, ABL1(H396P)-nonphosphorylated (Homo sapiens, UniProt P00519, H396P).
T1 construct: nonphosphorylated
To be noted: competition binding, % of control; read-out: Percent Control (100 uM Levosimendan). The method, boiled down:
(§1)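 KinomeScan competition binding was run across a human kinase panel at 10 μM and 100 μM levosimendan. Results are %control = (test − positive control)/(negative control − positive control) × 100.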

Assay [2] has as its target T2, ABL1-nonphosphorylated (Homo sapiens, UniProt P00519).
T2 construct: nonphosphorylated
Conditions: competition binding, % of control. The method, boiled down: as §1

In assay [3] the target is AKT1 (Homo sapiens, UniProt P31749). To be noted: competition binding, % of control; read-out: Percent Control (100 uM Levosimendan). The method, boiled down:
as §1

Assay [4] concerns the target ALK(L1196M) (Homo sapiens, UniProt Q9UM73, L1196M). Conditions: competition binding, % of control; read-out: Percent Control (100 uM Levosimendan). The method, boiled down:
as §1

The target of assay [5] is BUB1 (Homo sapiens, UniProt O43683). To be noted: competition binding, % of control. In outline:
as §1

Assay [6] addresses T3, CDK11 (Homo sapiens, UniProt Q9BWU1).
T3 construct: gene CDK19
To be noted: competition binding, % of control; read-out: Percent Control (100 uM Levosimendan). In outline:
as §1

Assay [7] addresses INSRR (Homo sapiens, UniProt P14616). Conditions: competition binding, % of control; read-out: Percent Control (100 uM Levosimendan). In outline: as §1
The target in assay [8] is IRAK4 (Homo sapiens, UniProt Q9NWZ3). Conditions: competition binding, % of control; read-out: Percent Control (100 uM Levosimendan). The method, boiled down:
as §1

Assay [9] concerns the target T4, LZK (Homo sapiens, UniProt O43283).
T4 construct: gene MAP3K13
To be noted: competition binding, % of control; read-out: Percent Control (100 uM Levosimendan). The method, boiled down: as §1

For assay [10], the target named is T5, MEK4 (Homo sapiens, UniProt P45985).
T5 construct: gene MAP2K4
T5 sequence (P45985 whole entry): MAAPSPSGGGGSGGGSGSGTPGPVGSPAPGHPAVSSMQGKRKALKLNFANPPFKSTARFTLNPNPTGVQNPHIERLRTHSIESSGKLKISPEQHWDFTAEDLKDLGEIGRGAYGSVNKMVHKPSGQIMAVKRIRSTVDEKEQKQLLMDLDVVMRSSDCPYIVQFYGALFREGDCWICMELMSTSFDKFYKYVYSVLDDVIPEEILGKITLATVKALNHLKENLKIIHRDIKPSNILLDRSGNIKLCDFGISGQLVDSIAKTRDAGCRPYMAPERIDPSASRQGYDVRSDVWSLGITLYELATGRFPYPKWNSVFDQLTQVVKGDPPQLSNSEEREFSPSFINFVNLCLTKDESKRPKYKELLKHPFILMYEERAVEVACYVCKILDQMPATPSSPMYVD
To be noted: competition binding, % of control; read-out: Percent Control (100 uM Levosimendan). The method, boiled down:
as §1

In assay [11] the target is MET(M1250T) (Homo sapiens, UniProt P08581, M1250T). Conditions: competition binding, % of control; read-out: Percent Control (100 uM Levosimendan). In outline:
as §1

The target of assay [12] is PAK1 (Homo sapiens, UniProt Q13153). To be noted: competition binding, % of control; read-out: Percent Control (100 uM Levosimendan). The method, boiled down:
as §1

In assay [13] the target is PAK4 (Homo sapiens, UniProt O96013). To be noted: competition binding, % of control; read-out: Percent Control (100 uM Levosimendan). In outline:
as §1

Assay [14] has as its target T6, PFTK1 (Homo sapiens, UniProt O94921).
T6 construct: gene CDK14
Conditions: competition binding, % of control; read-out: Percent Control (100 uM Levosimendan). The method, boiled down:
as §1

The target of assay [15] is PIK3CA(E542K) (Homo sapiens, UniProt P42336, E542K). To be noted: competition binding, % of control; read-out: Percent Control (100 uM Levosimendan). The method, boiled down: as §1
Assay [16] has as its target PIK3CA(E545A) (Homo sapiens, UniProt P42336, E545A). Conditions: competition binding, % of control; read-out: Percent Control (100 uM Levosimendan). The method, boiled down:
as §1

The target in assay [17] is SIK2 (Homo sapiens, UniProt Q9H0K1). Conditions: competition binding, % of control; read-out: Percent Control (100 uM Levosimendan). In outline:
as §1

Assay [18] addresses SRC (Homo sapiens, UniProt P12931). To be noted: competition binding, % of control. The method, boiled down: as §1
Assay [19] addresses T7, p38-delta (Homo sapiens, UniProt O15264).
T7 construct: gene MAPK13
Conditions: competition binding, % of control; read-out: Percent Control (100 uM Levosimendan). In outline:
as §1

[20] abbreviates: read-out: Percent Control (10 uM Levosimendan).
Setting [21] is: read-out: Percent Control (100 uM Levosimendan).

SRC, sequence (P12931 whole entry): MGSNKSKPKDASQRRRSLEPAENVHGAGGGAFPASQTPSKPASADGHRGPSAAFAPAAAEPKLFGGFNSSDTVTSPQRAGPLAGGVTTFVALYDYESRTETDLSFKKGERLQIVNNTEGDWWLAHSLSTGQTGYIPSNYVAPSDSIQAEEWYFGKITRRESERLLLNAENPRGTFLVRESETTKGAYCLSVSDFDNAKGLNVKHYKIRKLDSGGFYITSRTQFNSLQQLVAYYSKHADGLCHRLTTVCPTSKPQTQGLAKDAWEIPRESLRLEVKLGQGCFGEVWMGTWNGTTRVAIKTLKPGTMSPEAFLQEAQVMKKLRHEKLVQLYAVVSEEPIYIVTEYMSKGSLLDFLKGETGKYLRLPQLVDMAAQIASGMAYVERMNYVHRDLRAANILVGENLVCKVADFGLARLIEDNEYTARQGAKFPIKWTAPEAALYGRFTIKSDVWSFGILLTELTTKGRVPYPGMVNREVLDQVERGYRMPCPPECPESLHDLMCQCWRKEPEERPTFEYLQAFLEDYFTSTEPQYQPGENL
BUB1, sequence (O43683 whole entry): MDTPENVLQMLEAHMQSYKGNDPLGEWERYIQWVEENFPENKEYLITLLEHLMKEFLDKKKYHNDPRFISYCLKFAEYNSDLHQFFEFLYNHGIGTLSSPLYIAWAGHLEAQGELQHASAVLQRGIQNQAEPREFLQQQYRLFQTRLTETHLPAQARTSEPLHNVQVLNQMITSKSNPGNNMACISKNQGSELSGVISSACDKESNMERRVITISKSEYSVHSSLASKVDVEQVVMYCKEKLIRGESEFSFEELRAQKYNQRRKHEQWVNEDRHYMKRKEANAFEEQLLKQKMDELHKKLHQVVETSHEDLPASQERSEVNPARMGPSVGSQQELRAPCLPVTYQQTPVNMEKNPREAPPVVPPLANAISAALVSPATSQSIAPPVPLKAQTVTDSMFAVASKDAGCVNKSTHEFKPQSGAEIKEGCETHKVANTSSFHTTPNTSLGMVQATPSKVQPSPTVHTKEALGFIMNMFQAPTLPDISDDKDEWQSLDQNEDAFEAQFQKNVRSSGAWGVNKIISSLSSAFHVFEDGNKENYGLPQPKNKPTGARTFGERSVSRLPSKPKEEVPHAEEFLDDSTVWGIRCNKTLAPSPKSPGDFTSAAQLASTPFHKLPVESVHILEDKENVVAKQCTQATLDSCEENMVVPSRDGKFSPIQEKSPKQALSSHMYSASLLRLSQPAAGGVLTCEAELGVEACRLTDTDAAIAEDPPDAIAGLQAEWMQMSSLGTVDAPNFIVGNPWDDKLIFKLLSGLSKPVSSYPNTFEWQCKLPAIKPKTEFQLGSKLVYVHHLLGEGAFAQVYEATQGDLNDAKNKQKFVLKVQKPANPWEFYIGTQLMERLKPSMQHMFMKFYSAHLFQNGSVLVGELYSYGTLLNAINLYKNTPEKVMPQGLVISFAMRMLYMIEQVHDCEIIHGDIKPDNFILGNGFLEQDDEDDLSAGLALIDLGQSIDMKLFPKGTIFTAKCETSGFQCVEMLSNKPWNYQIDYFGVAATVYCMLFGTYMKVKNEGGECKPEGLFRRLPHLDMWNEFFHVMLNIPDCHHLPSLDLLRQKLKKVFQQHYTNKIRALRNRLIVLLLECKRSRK
T4 sequence (O43283 whole entry): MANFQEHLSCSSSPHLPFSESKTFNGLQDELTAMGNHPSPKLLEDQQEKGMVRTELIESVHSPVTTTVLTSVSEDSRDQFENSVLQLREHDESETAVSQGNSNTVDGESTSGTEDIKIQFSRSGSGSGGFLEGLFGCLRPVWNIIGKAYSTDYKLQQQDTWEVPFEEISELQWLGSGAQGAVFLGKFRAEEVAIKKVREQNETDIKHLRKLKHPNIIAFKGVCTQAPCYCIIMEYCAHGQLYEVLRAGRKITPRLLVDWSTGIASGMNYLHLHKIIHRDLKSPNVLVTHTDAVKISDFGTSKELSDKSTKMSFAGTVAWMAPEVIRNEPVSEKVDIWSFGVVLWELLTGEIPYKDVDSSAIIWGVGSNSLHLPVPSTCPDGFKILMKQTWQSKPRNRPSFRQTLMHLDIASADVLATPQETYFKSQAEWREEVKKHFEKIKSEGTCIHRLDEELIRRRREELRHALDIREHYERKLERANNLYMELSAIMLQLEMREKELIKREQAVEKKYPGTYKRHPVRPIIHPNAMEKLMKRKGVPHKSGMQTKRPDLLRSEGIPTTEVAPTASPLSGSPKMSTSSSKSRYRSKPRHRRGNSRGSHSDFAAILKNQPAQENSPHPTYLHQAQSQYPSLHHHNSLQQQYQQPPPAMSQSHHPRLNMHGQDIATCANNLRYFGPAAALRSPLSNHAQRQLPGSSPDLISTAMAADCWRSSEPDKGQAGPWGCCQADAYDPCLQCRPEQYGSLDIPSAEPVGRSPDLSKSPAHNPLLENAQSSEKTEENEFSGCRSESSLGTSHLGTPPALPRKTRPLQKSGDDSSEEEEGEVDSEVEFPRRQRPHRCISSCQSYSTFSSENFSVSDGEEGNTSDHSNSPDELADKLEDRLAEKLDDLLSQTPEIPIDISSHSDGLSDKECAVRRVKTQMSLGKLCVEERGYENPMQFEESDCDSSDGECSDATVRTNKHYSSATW
INSRR, sequence (P14616 whole entry): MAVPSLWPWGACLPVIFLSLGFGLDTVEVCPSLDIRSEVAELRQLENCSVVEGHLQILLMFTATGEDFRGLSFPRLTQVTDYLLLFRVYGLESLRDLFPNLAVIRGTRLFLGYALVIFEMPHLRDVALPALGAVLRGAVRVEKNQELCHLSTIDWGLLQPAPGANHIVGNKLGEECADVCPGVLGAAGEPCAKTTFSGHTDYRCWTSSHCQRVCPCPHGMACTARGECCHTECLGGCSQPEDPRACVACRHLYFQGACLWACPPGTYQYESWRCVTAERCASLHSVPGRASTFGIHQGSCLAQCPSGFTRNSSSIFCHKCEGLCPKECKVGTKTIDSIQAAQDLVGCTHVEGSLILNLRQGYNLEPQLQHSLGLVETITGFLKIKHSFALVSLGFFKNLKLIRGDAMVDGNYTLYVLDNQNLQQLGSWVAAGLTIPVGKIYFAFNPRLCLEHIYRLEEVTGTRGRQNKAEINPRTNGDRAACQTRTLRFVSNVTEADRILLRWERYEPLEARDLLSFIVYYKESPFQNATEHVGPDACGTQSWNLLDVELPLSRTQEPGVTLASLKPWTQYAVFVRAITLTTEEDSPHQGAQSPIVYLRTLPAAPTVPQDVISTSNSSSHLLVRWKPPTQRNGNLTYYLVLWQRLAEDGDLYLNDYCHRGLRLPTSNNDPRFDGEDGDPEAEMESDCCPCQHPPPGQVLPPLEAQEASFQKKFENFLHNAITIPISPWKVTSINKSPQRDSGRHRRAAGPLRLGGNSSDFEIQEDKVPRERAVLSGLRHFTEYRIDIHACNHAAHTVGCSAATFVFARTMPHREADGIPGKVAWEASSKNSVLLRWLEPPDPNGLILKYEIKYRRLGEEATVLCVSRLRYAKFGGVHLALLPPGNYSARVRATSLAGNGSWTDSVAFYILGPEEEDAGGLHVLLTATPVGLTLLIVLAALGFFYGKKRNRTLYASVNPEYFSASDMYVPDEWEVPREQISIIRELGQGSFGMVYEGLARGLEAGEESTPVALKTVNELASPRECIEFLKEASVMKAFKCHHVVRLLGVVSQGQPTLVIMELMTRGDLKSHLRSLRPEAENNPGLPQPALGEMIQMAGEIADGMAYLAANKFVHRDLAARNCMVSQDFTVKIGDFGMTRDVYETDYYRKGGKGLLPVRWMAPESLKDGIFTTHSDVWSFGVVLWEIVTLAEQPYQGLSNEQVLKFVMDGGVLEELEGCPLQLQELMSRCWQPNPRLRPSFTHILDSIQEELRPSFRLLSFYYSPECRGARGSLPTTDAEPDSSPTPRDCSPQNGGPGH
PAK4, sequence (O96013 whole entry): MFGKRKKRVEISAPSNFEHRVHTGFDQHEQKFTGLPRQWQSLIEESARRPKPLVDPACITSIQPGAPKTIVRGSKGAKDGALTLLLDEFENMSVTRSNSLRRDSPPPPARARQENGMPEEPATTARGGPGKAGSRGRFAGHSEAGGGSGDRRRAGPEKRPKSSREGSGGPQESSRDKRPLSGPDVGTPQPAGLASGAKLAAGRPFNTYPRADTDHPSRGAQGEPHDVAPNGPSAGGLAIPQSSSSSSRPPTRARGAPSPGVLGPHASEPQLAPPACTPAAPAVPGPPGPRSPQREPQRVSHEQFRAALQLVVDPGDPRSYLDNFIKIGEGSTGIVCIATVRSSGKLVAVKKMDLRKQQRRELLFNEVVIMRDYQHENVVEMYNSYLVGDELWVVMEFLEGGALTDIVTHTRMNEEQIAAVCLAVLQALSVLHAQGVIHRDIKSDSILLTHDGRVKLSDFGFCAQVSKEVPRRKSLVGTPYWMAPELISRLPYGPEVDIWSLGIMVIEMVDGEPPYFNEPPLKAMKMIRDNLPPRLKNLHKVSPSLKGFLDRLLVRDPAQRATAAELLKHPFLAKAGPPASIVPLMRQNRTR

On to `C[C@@H]1CC(=O)NN=C1c1ccc(NN=C(C#N)C#N)cc1` [levosimendan], for which the remaining binding at 100 µM is 60% in [1]; 49% in assay [2] (setting [21]); 56% in assay [3]; 72% in assay [4]; 53% in assay [5] (setting [21]); 100% in [6]. Besides, the remaining binding at 100 µM came out at 96% in assay [7]; 80% in assay [8]; 100% in assay [9]; 92% in [10]; 91% in assay [11]; 73% in assay [12]. For the same compound, the remaining binding at 100 µM in assay [13] is 89%; in [14] it was 67%; in assay [15], 100%; in assay [16], 68%; in assay [17], 65%; in assay [18] (setting [21]), 42%. Moreover, the remaining binding at 100 µM in assay [19] turned out to be 100%. Moreover, the remaining binding at 10 µM is 94% in assay [2] (setting [20]), 94% in assay [5] (setting [20]) and 100% in [18] (setting [20]).
